Laboratory results from patent US12180187B2, “1-phenyl-5-azinylpyrazolyl-3-oxyalkyl acids and their use for controlling unwanted plant growth” (BAYER AKTIENGESELLSCHAFT, priority 2019, dated 2024).

Experiments:
LOLRI = test: Pre-emergence action at 320 g/ha against LOLRI; assay type: in vivo, Lolium rigidum; conditions: visual scoring after about 3 weeks vs untreated controls
How it was run: (§1)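 Application: aqueous WP or EC with 0.5% additive on soil covering seeds, 600 l/ha. Read-out: visual percent damage after ~3 weeks in greenhouse, untreated pots as reference.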

DIGSA [1] = test: Pre-emergence action against DIGSA, 1280 g/ha; assay type: in vivo, Digitaria sanguinalis; conditions: visual scoring after about 3 weeks vs untreated controls, 100% = plants have died, 0% = like control plants
How it was run: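 Sandy loam pots, seeds covered with soil; aqueous WP/EC spray on covering soil, 0.5% additive, 600 L/ha. Greenhouse growth, good conditions. Readout: visual % activity at ~3 weeks (0% = like control, 100% = dead).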

ABUTH = test: Post-emergence action against ABUTH, 1.28 kg/ha; assay type: in vivo, Abutilon theophrasti; conditions: dosage 1280 g/ha, visual rating about 3 weeks after treatment vs untreated controls (100% = plants died)
How it was run: (§2)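 Weeds grown in sandy loam in a greenhouse were sprayed at the one-leaf stage, 2–3 weeks after sowing, with WP or EC formulations in water containing 0.5% additive at 600 L/ha. About 3 weeks later, damage was scored visually versus untreated controls (0% = like control, 100% = dead).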

MATIN [2] = test: Post-emergence action against MATIN, 1.28 kg/ha; assay type: in vivo, Tripleurospermum inodorum (Matricaria inodora); conditions: dosage 1280 g/ha, visual rating about 3 weeks after treatment vs untreated controls (100% = plants died)
How it was run: as §2

AMARE = test: Post-emergence action against AMARE, 1.28 kg/ha; assay type: in vivo, Amaranthus retroflexus; conditions: dosage 1280 g/ha, visual rating about 3 weeks after treatment vs untreated controls (100% = plants died)
How it was run: as §2

ALOMY [3] = test: Post-emergence action against ALOMY, 1.28 kg/ha; assay type: in vivo, Alopecurus myosuroides; conditions: dosage 1280 g/ha, visual rating about 3 weeks after treatment vs untreated controls
How it was run: as §2

VERPE = test: Post-emergence action against VERPE, 1.28 kg/ha; assay type: in vivo, Veronica persica; conditions: dosage 1280 g/ha, visual rating about 3 weeks after treatment vs untreated controls (100% = plants died)
How it was run: as §2

MATIN [4] = test: Pre-emergence action at 320 g/ha against MATIN; assay type: in vivo, Tripleurospermum inodorum (Matricaria inodora); conditions: visual scoring after about 3 weeks vs untreated controls
How it was run: as §1

ALOMY [5] = test: Post-emergence action against ALOMY, 320 g/ha; assay type: in vivo, Alopecurus myosuroides; conditions: dosage 320 g/ha, visual rating about 3 weeks after treatment vs untreated controls (100% = plants died)
How it was run: (§3)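 Herbicidal effect is scored by eye about 3 weeks after a foliar spray and expressed as percent activity, with untreated plants as 0% and dead plants as 100%. Treatment is applied at the one-leaf stage of greenhouse-grown, soil-sown plants, at a water rate of 600 l/ha containing 0.5% additive.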

STEME = test: Post-emergence action against STEME, 1.28 kg/ha; assay type: in vivo, Stellaria media; conditions: dosage 1280 g/ha, visual rating about 3 weeks after treatment vs untreated controls (100% = plants died)
How it was run: as §2

SETVI = test: Post-emergence action at 320 g/ha against SETVI; assay type: in vivo, Setaria viridis; conditions: visual rating about 3 weeks after treatment vs untreated controls
How it was run: as §3

ECHCG = test: Post-emergence action against ECHCG, 1.28 kg/ha; assay type: in vivo, Echinochloa crus-galli; conditions: dosage 1280 g/ha, visual rating about 3 weeks after treatment vs untreated controls
How it was run: as §2

DIGSA [6] = test: Post-emergence action at 320 g/ha against DIGSA; assay type: in vivo, Digitaria sanguinalis; conditions: dosage 320 g/ha, visual rating about 3 weeks after treatment vs untreated controls (100% = plants died)
How it was run: as §3

PHBPU = test: Post-emergence action at 320 g/ha against PHBPU; assay type: in vivo; conditions: visual rating about 3 weeks after treatment vs untreated controls
Description: Accordingly, the compounds of the invention have good herbicidal action against a broad spectrum of weed grasses and broad-leaved weeds and are therefore suitable for controlling unwanted vegetation by the post-emergence method. • b) Seeds of monocotyledonous and dicotyledonous weeds and crop plants are placed in sandy loam in plastic or organic planting pots, covered with soil and cultivated in a greenhouse under controlled growth conditions. 2 to 3 weeks after sowing, the test plants are treated at the one-leaf stage. The compounds of the invention, formulated in the form of wettable powders (WP) or as emulsion concentrates (EC), are then sprayed onto the green parts of the plants as aqueous suspension or emulsion with addition of 0.5% additive at a water application rate of 600 l/ha (converted). After the test plants have been kept in the greenhouse under optimum growth conditions for about 3 weeks, the activity of the preparations is rated visually in comparison to untreated controls. For example, 100% activity=the plants have died, 0% activity=like control plants. Tables 39 to 49 below show the effects of selected compounds of the general formula (I) according to Tables 1 and 2 on various harmful plants and at an application rate corresponding to 320 g/ha, which were obtained by the experimental procedure mentioned above.

Row | Structure (SMILES) | Pre-emergence action against LOLRI in % (LOLRI) [%] | Pre-emergence action against DIGSA (DIGSA [1]) [%] | Post-emergence action against ABUTH (ABUTH) [%] | Post-emergence action against MATIN (MATIN [2]) [%] | Post-emergence action against AMARE (AMARE) [%] | Post-emergence action against ALOMY (ALOMY [3]) [%] | Post-emergence action against VERPE (VERPE) [%] | Pre-emergence action against MATIN in % (MATIN [4]) [%] | Post-emergence action against ALOMY (ALOMY [5]) [%] | Post-emergence action against STEME (STEME) [%] | Post-emergence action against SETVI in % (SETVI) [%] | Post-emergence action against ECHCG (ECHCG) [%] | Post-emergence action at 320 g/ha against DIGSA in % (DIGSA [6]) [%] | Post-emergence action against PHBPU in % (PHBPU) [%]
1 | COC(=O)CNC(=O)COc1nn(-c2ccccc2F)c(-c2ccc(F)nc2)c1C(F)(F)F [Example X-007] | 100 | 100 | 90 | 90 | 90 | 100 | 90 | 100 | 100 | 100 | 80 | 100 |  | 
2 | CCOC(=O)COc1nn(-c2ccccc2F)c(-c2ccc(F)nc2)c1I [VII-036] |  | 100 | 90 | 100 | 100 | 100 | 100 | 90 | 90 | 100 | 90 | 90 | 90 | 80
3 | O=C(O)COc1nn(-c2ccccc2F)c(-c2ccc(F)nc2)c1I [VII-037] | 100 | 100 | 90 | 90 | 90 | 100 | 100 | 80 | 100 | 100 | 80 | 90 | 90 | 80
4 | COCCOC(=O)COc1nn(-c2ccccc2F)c(-c2ccc(F)nc2)c1Br [VII-052] | 100 | 100 | 90 | 100 | 90 | 100 | 100 | 90 | 90 | 100 |  | 100 | 90 | 80
5 | CCOC(=O)C(C)Oc1nn(-c2ccccc2F)c(-c2ccc(F)nc2)c1I (stereo not shown) [VII-057] | 90 | 100 |  | 100 | 100 | 100 | 90 | 90 | 80 |  | 80 | 100 | 90 | 
6 | COC(=O)[C@@H](C)Oc1nn(-c2cc(F)ccc2F)c(-c2ccc(F)nc2)c1Br [VII-062] | 100 | 100 |  |  |  | 100 | 100 | 100 | 90 | 100 |  | 100 | 90 | 80
